Laboratory results from PMC11011439, “Influence of Molecular Design on the Tumor Targeting and Biodistribution of PSMA-Binding Tracers Labeled with Technetium-99m” (International Journal of Molecular Sciences, 2024).
Marks after values point to notes of the source that are not given here.

Assays:
PSMA [1] = molecular target: T1, PSMA (Homo sapiens, UniProt Q04609); experiment: In vitro binding specificity (saturation with non-labeled PSMA-11) on PC3-pip cells; details: 2 nM tracer, 250-fold molar excess of PSMA-11, 1 h, 37 °C
T1 construct: expressed in transfected cells; host or cells: PC3-pip cells (from Prof. Martin G. Pomper, Johns Hopkins University)
Description: For the in vitro binding specificity test, approximately 8 × 10^5 of PC3-pip cells per well were seeded in 6-well plates 24 h before the experiment. Cells in three control wells were pre-saturated with a 250-fold excess of non-labeled PSMA-11 15 min before the addition of radiotracers, while the second set was treated with complete media. After 15 min of incubation at room temperature, [^99mTc]Tc-labeled radioligands were added to all wells to reach a concentration of 2 nM. After one hour of incubation at 37 °C, the cells were washed with PBS solution, detached, and collected. Cell-associated activity was measured using a gamma counter and presented as the percentage of added activity.

[2] = tested on: PSMA-expressing prostate cancer xenografts (PC3-pip); experiment: Biodistribution and tumor targeting in PC3-pip tumor-bearing mice; type: in vivo, BALB/c nu/nu mice; details: 3 h pi
Description: PSMA-expressing prostate cancer xenografts were implanted in BALB/c nu/nu mice by subcutaneous injection of PC3-pip cell suspension in PBS (10^7 cells/animal in 100 µL). The average tumor weight was 0.3 ± 0.2 g at the time of the experiment. Four mice per data point were used. Mice were intravenously injected with 5 nmol of the radiotracer (60 kBq, the mass of the injected compound was adjusted with an unlabeled tracer). The mice were euthanized 3 h pi, and the samples were treated as described above.

[3] = Stability of the [99mTc]Tc-maG3 complex in PBS and under cysteine challenge (radio-HPLC); type: physicochemical; details: room temperature, 1 h
Description: The iTLC data were cross-validated using radio-HPLC analysis, performed using a Hitachi Chromaster HPLC system with a radioactivity detector and Phenomenex Luna® C18 column (100 Å; 150 × 4.6 mm; 5 µm) at room temperature (20 °C), in the following conditions: solvent A: 0.1% trifluoroacetic acid (TFA) in H2O, solvent B: 0.1% TFA in acetonitrile, flow rate: 1 mL/min. For identity and purity analysis of [^99mTc]Tc-BQ0411 and [^99mTc]Tc-BQ0412, the method with a gradient from 5 to 60% solvent B over 20 min was used.
To evaluate the chemical stability of the [^99mTc]Tc-maG3 complex, fractions of radiolabeled conjugates (10 µL, 0.25 µg) were incubated with a 300× molar excess of cysteine or with PBS at room temperature for 1 h. The test was run in triplicate.

[4] = Octanol/water distribution coefficient (LogD); type: physicochemical; details: n-octanol / Milli-Q water
Description: The LogD was determined experimentally based on the procedure described earlier. Briefly, the radiolabeled compound of interest was added to a LoBind Eppendorf tube (Eppendorf, Hamburg, Germany) containing Milli-Q water (500 μL) and n-octanol (500 μL), and the mixture was vortexed and centrifuged. Thereafter, three fractions from each phase were collected and the activity was measured using a gamma counter. The LogD was calculated by dividing the average activity measured in octanol by the average activity measured in water.

PC3-pip cells = experiment: Cellular processing (internalization) during continuous incubation; type: cell-based; details: 2 nM, 37 °C
Description: To evaluate the cellular processing of [^99mTc]Tc-labeled BQ0411 and BQ0412, PC3-pip cells were incubated with the radiolabeled tracer (2 nM), and at predetermined time points (1, 2, 4, and 8 h), cells were treated with 0.5 mL of 4 M urea solution in a 0.2 M glycine buffer, pH 2.5, for 5 min on ice. After that, the acidic supernatant was collected, and this fraction was considered to be the membrane-bound activity. To lyse the cells, 0.5 mL of 1 M sodium hydroxide solution was added and incubated at 37 °C for at least 20 min. The alkaline-containing solution was collected, and the basic fraction was considered to be the internalized activity.

[5] = Biodistribution in NMRI mice; type: in vivo; details: for activity in carcass / activity in intestines with content / uptake in blood / uptake in kidney / uptake in liver / uptake in lung / uptake in salivary glands / uptake in spleen / uptake in stomach: 40 pmol/mouse iv
Description: Four NMRI mice were intravenously injected with 40 pmol of the radiotracer (60 kBq, the mass of the injected compound was adjusted with an unlabeled tracer). The mice were euthanized with a lethal intraperitoneal injection of ketamine/xylazine, followed by exsanguination at 3 and 24 h post-injection (pi). The organs of interest were collected, weighed, and measured for their activity content using a gamma counter. The uptake activity in organs was calculated as the percentage of injected activity per gram (%IA/g) for the blood, salivary glands, lungs, liver, spleen, stomach, and kidneys and as %IA for the remaining carcass and the rest of the intestines with content.

PSMA [6] = molecular target: T1, PSMA; experiment: Real-time binding kinetics on living PC3-pip cells (LigandTracer Yellow); details: 5 nM tracer, 1:2 interaction model
Description: The binding kinetics of [^99mTc]Tc-labeled BQ0411, BQ0412, and BQ0413 were measured in real time using LigandTracer Yellow Instruments (Ridgeview Instruments AB, Uppsala, Sweden) on PC3-pip cells, as described earlier. The activity binding was recorded at 5 nM on the radiolabeled tracers for 150 min. After measuring the binding kinetics, the medium containing the labeled tracer was replaced with fresh medium, and the dissociation was monitored over 7 h. […]

T1 sequence (Q04609 whole entry): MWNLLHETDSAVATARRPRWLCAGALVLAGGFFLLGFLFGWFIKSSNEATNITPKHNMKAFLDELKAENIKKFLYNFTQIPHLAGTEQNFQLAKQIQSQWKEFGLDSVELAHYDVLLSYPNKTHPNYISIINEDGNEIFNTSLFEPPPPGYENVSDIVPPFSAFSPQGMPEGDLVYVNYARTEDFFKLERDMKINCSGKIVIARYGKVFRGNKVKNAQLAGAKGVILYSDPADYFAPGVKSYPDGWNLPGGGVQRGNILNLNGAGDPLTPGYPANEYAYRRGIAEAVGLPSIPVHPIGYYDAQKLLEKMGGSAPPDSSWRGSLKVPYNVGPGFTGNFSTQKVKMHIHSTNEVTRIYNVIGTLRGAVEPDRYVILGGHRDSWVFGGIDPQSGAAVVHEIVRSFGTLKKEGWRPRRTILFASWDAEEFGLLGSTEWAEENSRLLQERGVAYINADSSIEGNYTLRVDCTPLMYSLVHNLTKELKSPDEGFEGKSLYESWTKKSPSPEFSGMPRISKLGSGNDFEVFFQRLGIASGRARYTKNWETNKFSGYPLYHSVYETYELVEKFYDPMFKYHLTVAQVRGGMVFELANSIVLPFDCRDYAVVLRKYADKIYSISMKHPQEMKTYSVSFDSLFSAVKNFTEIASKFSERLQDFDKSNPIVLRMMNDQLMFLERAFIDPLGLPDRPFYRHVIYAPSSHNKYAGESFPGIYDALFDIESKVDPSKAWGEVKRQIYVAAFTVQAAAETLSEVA

For `CC(=O)NC(CCCCNC(=O)CNC(=O)C[N]1C(=O)C[N]2C(=O)C[N]3C(=O)C[S][99Tc-]132=[O])C(=O)NCCCCCCCC(=O)NC(Cc1ccc(O)cc1)C(=O)NC(Cc1ccc2ccccc2c1)C(=O)NCCCCC(NC(=O)NC(CCC(=O)O)C(=O)O)C(=O)O` (stereo not drawn) [[^99mTc]Tc-BQ0411], the “binding to PC3-pip cells after pre-treatment with excess non-labeled PSMA-11” value (PSMA [1]) was “significantly (p ˂ 0.0001) decreased”, the activity in carcass ([2]; 5 nmol/mouse iv) was 3.5 ± 0.9 %IA/sample and the “activity in intestines with content” value ([2]; 5 nmol/mouse iv) was 44 ± 5 ^a,b %IA/sample. The uptake in blood ([2]; 5 nmol/mouse iv) was 1.0 ± 0.4 ^b %IA/g, the uptake in bone ([2]; 5 nmol/mouse iv) was 0.20 ± 0.06 %IA/g and the uptake in kidney ([2]; 5 nmol/mouse iv) was 13 ± 6 %IA/g. For the same compound, the uptake in liver ([2]; 5 nmol/mouse iv) was 1.9 ± 0.7 ^a,b %IA/g, the uptake in lung ([2]; 5 nmol/mouse iv) was 0.9 ± 0.3 ^a,b %IA/g and the uptake in muscle ([2]; 5 nmol/mouse iv) was 0.17 ± 0.05 %IA/g. For the same compound, the uptake in pancreas ([2]; 5 nmol/mouse iv) was 0.2 ± 0.1 %IA/g, the “uptake in salivary glands” value ([2]; 5 nmol/mouse iv) was 0.4 ± 0.1 %IA/g and the “uptake in small intestine” value ([2]; 5 nmol/mouse iv) was 0.9 ± 0.4 %IA/g. For the same compound, the uptake in spleen ([2]; 5 nmol/mouse iv) was 1.0 ± 0.2 %IA/g, the uptake in stomach ([2]; 5 nmol/mouse iv) was 0.4 ± 0.2 %IA/g and the uptake in tumor ([2]; 5 nmol/mouse iv) was 27 ± 4 ^a,b %IA/g. For the same compound, the tumor-to-blood ratio ([2]; 5 nmol/mouse) was 32 ± 11 ^b, the tumor-to-bone ratio ([2]; 5 nmol/mouse) was 146 ± 57 and the tumor-to-kidney ratio ([2]; 5 nmol/mouse) was 2.3 ± 0.8 ^a. For the same compound, the tumor-to-liver ratio ([2]; 5 nmol/mouse) was 16 ± 7 ^a,b, the tumor-to-lung ratio ([2]; 5 nmol/mouse) was 33 ± 9 ^b and the tumor-to-muscle ratio ([2]; 5 nmol/mouse) was 173 ± 47 ^b. The tumor-to-pancreas ratio ([2]; 5 nmol/mouse) was 121 ± 46, the tumor-to-salivary ratio ([2]; 5 nmol/mouse) was 69 ± 16 ^b and the tumor-to-small intestine ratio ([2]; 5 nmol/mouse) was 35 ± 18 ^b. For the same compound, the tumor-to-spleen ratio ([2]; 5 nmol/mouse) was 24 ± 7, the tumor-to-stomach ratio ([2]; 5 nmol/mouse) was 86 ± 43 ^b and the “activity uptake in the gastrointestinal tract (with content)” value [2] was “over 40 %IA”. For the same compound, the “tumor uptake, fold higher compared with [99mTc]Tc-BQ0412 and [99mTc]Tc-BQ0413” value [2] was 1.6 fold, the “stability in the presence of cysteine” value ([3]; 300-fold molar excess of cysteine) was “stable” and the “stability during incubation in PBS” value ([3]; PBS) was “stable”. For the same compound, the “logD (octanol–water distribution coefficient)” value [4] was −2.3 ± 0.1, the “internalized activity (of cell-associated activity)” value (PC3-pip cells; 4 h of continuous incubation) was 44 ± 1% and the “internalized activity (of cell-associated activity)” value (PC3-pip cells; after 4 h (8 h of continuous incubation)) was 44.2 ± 0.7%. The activity in carcass ([5]; 3 h pi) was 6.4 ± 0.8 *^,a,b %IA/sample, the “activity in intestines with content” value ([5]; 3 h pi) was 43 ± 6 *^,a,b %IA/sample and the uptake in blood ([5]; 3 h pi) was 1.4 ± 0.7 *^,a %IA/g. For the same compound, the uptake in kidney ([5]; 3 h pi) was 129 ± 22 *^,a,b %IA/g, the uptake in liver ([5]; 3 h pi) was 0.8 ± 0.1 *^,a %IA/g and the uptake in lung ([5]; 3 h pi) was 0.8 ± 0.1 *^,a %IA/g. For the same compound, the “uptake in salivary glands” value ([5]; 3 h pi) was 0.5 ± 0.1 *^,a,b %IA/g, the uptake in spleen ([5]; 3 h pi) was 0.38 ± 0.07 *^,b %IA/g and the uptake in stomach ([5]; 3 h pi) was 0.42 ± 0.07 *^,b %IA/g. The activity in carcass ([5]; 24 h pi) was 0.21 ± 0.01 ^b %IA/sample, the “activity in intestines with content” value ([5]; 24 h pi) was 0.3 ± 0.2 %IA/sample and the uptake in blood ([5]; 24 h pi) was 0.027 ± 0.002 ^b %IA/g. The uptake in kidney ([5]; 24 h pi) was 3.9 ± 0.6 ^b %IA/g, the uptake in liver ([5]; 24 h pi) was 0.032 ± 0.004 ^b %IA/g and the uptake in lung ([5]; 24 h pi) was 0.019 ± 0.005 ^b %IA/g. For the same compound, the “uptake in salivary glands” value ([5]; 24 h pi) was 0.022 ± 0.005 ^b %IA/g, the uptake in spleen ([5]; 24 h pi) was 0.015 ± 0.002 %IA/g and the uptake in stomach ([5]; 24 h pi) was 0.06 ± 0.02 ^b %IA/g. The “activity remaining in the body” value ([5]; 3 h pi, excluding activity in the intestines with content) was 40–50 % from injected, the “washout of activity from kidneys” value ([5]; 24 h pi compared to 3 h pi) was 97% and the ka1 (PSMA [6]) was 24000 M⁻¹ s⁻¹. The ka2 (PSMA [6]) was 67000 M⁻¹ s⁻¹, the kd1 (PSMA [6]) was 1.4e-05 s⁻¹ and the kd2 (PSMA [6]) was 2e-05 s⁻¹.
